Columns and labels:
[1] = system: intracellular cAMP concentration, HEK 293 cells; test: Intracellular cAMP changes in HEK293 cells with CPM-hRL Luc/RIIβB biosensors (isopreterenol, propranolol, forskolin); assay type: cell-based
Description: Cells were cultured in 2 mL DMEM/F12 with HEPES buffer (Invitrogen) and 10% FBS at 37° C. with 5% CO2 in a 6 well plate. Three of the constructs described in Example XVII were used to detect intracellular changes of cAMP concentrations. The constructs used were: pBFB277, pBFB279 and pBFB287. HEK293 cells stably expressing CPM91-hRL/RIIβB (ORF derived from 201325.44.H6 were also used in these experiments. HEK293 cells were transfected with TransIt®-LT1 Reagent (MIRUS) using 6 μL TransIt®-LT1 reagent and 2 μg DNA (pBFB277, pBFB279 and pBFB287) per well of a 6 well plate. Cells were allowed to grow overnight and were assayed the next day. Approximately 1 day after transfection, cells were trypsinized, resuspended in fresh DMEM/F12 with HEPES buffer (Invitrogen) with 1% FBS and plated in a 96 well plate at approximately 10,000 cells per well. Alternatively, a HEK293 cell line stably expressing CP91-hRL/RIIβB was plated in a 96 well plate at approximately 10,000 cells per well. A 10 μL aliquot of 600 μM EnduRen was added to a total of 100 μL of cell culture to give a final concentration of approximately […]. Cells were then incubated at 37° C. with 5% CO2. After 5 hours, the plate was removed from the incubator and allowed to cool to room temperature for at least 20 minutes. After 20 minutes, baseline measurements of luminescence were measured using a 96 well Veritas Luminometer (Turner Biosystems; integration time of 0.5 seconds per well). Cells were then induced with 10 μM isopreterenol (CalBiochem), 50 μM forskolin (Sigma) or not induced (0.1% DMSO, Sigma) and luminescence was measured continuously for about 30 minutes. After 30 minutes, 10 μM propranolol (Sigma) was added to cells already induced with isopreterenol and 0.1% DMSO was added to all other samples. Luminescence was then measured continuously for the next 30 minutes. A final addition of 50 μM forskolin was added to the isopreterenol/propranolol sample and 0.1% DMSO was added to all other samples. Luminescence was then measured continuously for the next half hour. Samples were measured in sets of 4-6 replicates. 10× stocks of isopreterenol, propranolol, forskolin and DMSO were made in DMEM/F12 with HEPES buffer (Invitrogen) and 1% FBS.

[2] = system: intracellular cAMP, HEK293 cells; test: HEK293 cells stably expressing CP234-Luc/RIIB, forskolin stimulation and Z′ measurement; assay type: cell-based
Description: The ORF from pBFB135, under the class of biosensors called “CPM-FF Luc/RIIβB,” was used to generate the transient and stable cells lines described below. These cell lines are called “CP234-Luc/RIIB,” “cAMP LucSensor,” “LucSensor,” and “FF cAMP Sensor.”
HEK293 cells stably expressing CP234-Luc/RIIB (ORF derived from pBFB135) were resuspended in complete media and mixed with 5 mM luciferin-EF. Cells were plated at 1×10^5 cells per well in a 96 well plate and equilibrated to room temperature for 1.5 hours. After stimulation with forskolin, luminescence was measured at 15 minutes using a GloMax™ Luminometer.
For a Z′ measurement, 2×10^4 cells were aliquoted per well to a 384-well plate and equilibrated using a similar protocol. Half the plate was induced with […], whereas the other half remained uninduced. Luminescence was captured 15 minutes after induction using a TECAN GENios Pro™ luminometer. The fold of induction was 6.1 and Z′ was 0.83. Since assays with Z′ greater than 0.5 are considered good quality for high-throughput screening (HTS), the cAMP biosensor-based assay is amenable for HTS.

[3] = system: intracellular cAMP, HEK-293 cells; test: Forskolin titration in HEK-293 cells transfected with CPM-hRL/RIIβB biosensor (201325.78.E5); assay type: cell-based
Description: 100 μl HEK-293 cells were plated in a 96 well plate and grown to 70-90% confluency in DMEM/F12 with HEPES buffer (Invitrogen) with 10% FBS at 37° C. with 5% CO2.
Cells were transfected with TransIt®-LT1 Reagent (MIRUS) using 0.3 μl TransIt®-LT1 reagent and 0.15 μg DNA (CPM-hRL/RIIβB cAMP biosensor with X/Y peptide linker lengths of (X=4, Y=20) (201325.78.E5)) per well of a 96-well plate. Cells were allowed to grow overnight and were assayed the next day.
Approximately 1 day after transfection, cells were removed from incubator and equilibrated to room temperature. A 10 μl aliquot of 600 μM EnduRen Live Cell Substrate (Promega) was added to a total of 100 μl of cell culture to give a final concentration of approximately 60 μM coelentrazine. Cells were then incubated at room temperature for at least 15 minutes. After 15 minutes at room temperature, baseline measurements of luminescence were measured using a 96-well Veritas Luminometer (Turner) at 0.5 seconds per well. Cells were then induced with 0.025 μM-250 μM forskolin (Sigma) or not induced (0.1% DMSO (Sigma)) and luminescence was measured continuously for about 30 minutes (FIG. 19). Samples were measured in sets of 5 replicates per concentration of forskolin. EC50s were calculated using GraphPad Prism for Windows, Version 4.

[4] = system: intracellular cAMP concentration, HEK 293 cells; test: Intracellular cAMP changes in HEK 293 cells transiently transfected with CPM-FF Luc/RIIβB (pBFB141); assay type: cell-based; conditions: HEK 293 cells, pBFB141; 10 μM isopreterenol or 50 mM forskolin (so in the source), treatment alone, room temperature
Description: Cells were cultured in 60 ml in DMEM/F12 with HEPES buffer (Invitrogen) with 10% FBS at 37° C. with 5% CO2.
The ORF encoding the CPM-FF Luc/RIIβB based cAMP biosensor with X/Y linker lengths of (X=10, Y=0) was transferred to Flexi vector pF4K (Flexi vector system; Promega Corp.). The resultant plasmid construct (pBFB141) utilizes an upstream CMV promoter for expression of the associated cAMP biosensor in mammalian cells.
Cells were transfected with TransIt®-LT1 Reagent (MIRUS) using 0.3 μl TransIt®-LT1 reagent and 0.15 μg DNA per well of a 96 well plate. Cells were allowed to grow overnight and were assayed the next day.
Approximately 1 day after transfection, cells were removed from the incubator and equilibrated to room temperature. A 5 μl aliquot of 100 mM Luciferin EF was added to a total of 90 μl of cell culture plus transfection reagent to give a final concentration of approximately 5 mM luciferin. Cells were then incubated at room temperature for at least 90 minutes. After 90 minutes at room temperature, baseline measurements of luminescence were measured using a 96 well Veritas Luminometer (Turner Biosystems; integration time of 0.5 seconds per well). Cells were then induced with 10 μM isopreterenol (CalBiochem), 50 mM forskolin (Sigma) or not induced (0.1% DMSO, Sigma) and luminescence was measured continuously for about 30 minutes. After 30 minutes, […] (Sigma) was added to cells with isopreterenol and 0.1% DMSO was added to all other samples. Luminescence was then measured continuously for the next 30 minutes. A final addition of 50 μM forskolin was added to the isopreterenol/propranolol sample and 0.1% DMSO was added to all other samples. Luminescence was then measured continuously for the next half hour. Samples were measured in sets of 12 replicates. 10× stocks of isopreterenol, propranolol, forskolin and DMSO were made in 1×PBS (Invitrogen).

[5] = molecular target: T1, Akt1/PKB alpha recombinant enzyme (Homo sapiens, UniProt P31749); test: In vitro serine/threonine kinase sensor assay with Akt1/PKB; assay type: biochemical; conditions: 10 ng Akt1/PKB alpha, 30° C., 20 minutes
T1 construct: purchased Upstate Biotechnology
T1 sequence (P31749 whole entry): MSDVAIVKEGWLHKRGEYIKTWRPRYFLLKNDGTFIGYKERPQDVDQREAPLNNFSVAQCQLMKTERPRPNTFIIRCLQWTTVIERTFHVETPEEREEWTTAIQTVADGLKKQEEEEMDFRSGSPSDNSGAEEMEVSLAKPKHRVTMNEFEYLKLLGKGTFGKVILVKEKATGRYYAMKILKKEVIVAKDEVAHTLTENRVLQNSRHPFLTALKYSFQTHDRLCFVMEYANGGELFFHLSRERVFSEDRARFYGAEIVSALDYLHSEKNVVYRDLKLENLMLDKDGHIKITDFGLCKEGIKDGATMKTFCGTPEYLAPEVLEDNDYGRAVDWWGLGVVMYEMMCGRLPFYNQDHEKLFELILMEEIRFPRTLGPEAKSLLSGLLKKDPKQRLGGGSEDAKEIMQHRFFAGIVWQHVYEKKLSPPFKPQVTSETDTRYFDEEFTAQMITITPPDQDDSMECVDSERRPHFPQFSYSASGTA
Description: Constructs pBFB335, 336, 338, 339, 340, 417, 418, 419, 422, 22 and 8 were tested in vitro using TNT® T7 Coupled Reticulocyte Lysate System (Promega Corp.). […] Luminescence was measured using a Turner 20/20N luminometer (Turner Biosystems; 1 second integration time). All samples were measured in triplicate. […]
The protocol for other Serine/Threonine kinase sensors is identical to the one above except that for the CPM hRL Luc samples, 5 μL of sample are added to a 96 well plate+5 μL 2× Renilla lysis buffer without detergents (150 mM HEPES, 100 mM Thiourea) and 100 μL Renilla Assay Reagent (Promega Corp.) is added by injectors using a Veritas Microplate Luminometer and luminescence is measured (Turner Biosystems; Bright-Glo program; 3 second integration time). FF Luc samples are measured by adding 100 μL of Luciferase Assay Reagent (LAR; Promega Corp.), to 5 μL of sample in a 96 well plate, by injectors using a Veritas Microplate Luminometer and luminescence measured (Turner Biosystems; Bright-Glo program; 3 second integration time).

[6] = CPM-FF Luc calcium biosensors, 10 mM CaCl2 or 10 mM EDTA plus 2.5 mM EGTA; assay type: biochemical; conditions: 10 mM CaCl2 vs 10 mM EDTA plus 2.5 mM EGTA
Description: Calcium biosensors were prepared by fusing sequences encoding a circularly permuted firefly luciferase having engineered N- and C-termini at residues 234 and 233, respectively, to sequences encoding protein domains that bind calcium. One type of calcium biosensor utilized a mutant of fast chicken skeletal muscle troponin C (TnC) (amino acids 15-163; N109D, D111N, N145D, D147N; Genbank NM_205450) [Met-(Luc2.0 234-544)-(Linker X)-(TnC)-(Linker Y)-(Luc2.0 4-233)-Val], and the second type of calcium biosensor utilized human calmodulin (CaM) (amino acids 5-148; Genbank BC005137) [Met-Luc+ (234-544)-(Linker X)-human Calmodulin (5-148)-(Linker Y)-Luc+ (4-233)].
CPM-FF Luc/TnC and CPM-FF Luc/CaM constructs with varying X/Y peptide linker lengths were expressed in vitro using the T7 Coupled Reticulocyte Lysate System (pBFB225, pBFB226, pBFB227, pBFB7; FIG. 24). Reactions were then supplemented with 10 mM CaCl2 or 10 mM EDTA plus 2.5 mM EGTA.

decrease in luminescence plus Akt1/PKB as compared to no Akt1/PKB [5] | Molecule | increase in light output ([1]; HEK293 cells stably expressing CPM91-hRL/RIIβB, isopreterenol and forskolin treatment) | increase in light output from transfected cells ([1]; HEK 293 transiently transfected with CPM-hRL Luc/RIIβB (X=4, Y=20) constructs, 10 μM isopreterenol or 50 μM forskolin alone) | fold of induction ([2]; 384-well plate, induced with 20 forskolin (so in the source), 15 minutes) [fold] | EC50 ([2]; Homo sapiens, 0.25 h, HEK293 stably expressing CP234-Luc/RIIB, 96 well, luminescence at 15 minutes) [µM] | light output above that of untreated cells at maximal levels ([3]; CPM-hRL/RIIβB X=4, Y=20 (201325.78.E5)) [fold] | EC50 ([3]; Homo sapiens, HEK293, CPM-hRL/RIIβB X=4, Y=20 (201325.78.E5), read-out: EC50 of the forskolin response) [µM] | increase in light output from transfected cells [4] | fold reduction in luminescence activity in the presence of calcium [6]
– | C=C[C@@]1(C)CC(=O)[C@]2(O)[C@@]3(C)[C@@H](O)CCC(C)(C)[C@@H]3[C@H](O)[C@H](OC(C)=O)[C@@]2(C)O1 [forskolin] | about 5 fold | approximately 2 fold | 6.1 | 0.36 | 3.6 | 0.059 | approximately 2 fold | –
did not change | pBFB22: wild-type firefly luciferase control | – | – | – | – | – | – | – | No response

Reference: patent US10077433B2, “Permuted and nonpermuted luciferase biosensors” (PROMEGA CORPORATION, priority 2006, dated 2018)
